# PubChem BioAssay AID1963450 (Molecular Pharmacology Branch, DTP, NCI, 2024)
# Values joined by “and” are separate entries in the source; they are usually repeats but may differ in a detail not shown here. Equal values may be shown once.
# Test system: 556581-035-R-J1-PDC complex spheroid growth
# Test: Anticancer human tumor 556581-035-R-J1-PDC patient-derived ovarian carcinoma cell line growth inhibition [Asc]
# Settings: for viability, T/C: stronger effect = lower value
# In short: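 Spheroid model: tumor line + HUVEC + hMSC. Single agents and combinations; top conc. at/near clinical Cmax (10 microM if undetermined), half-log dilutions. DMSO stocks at 800-fold test concentration.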
# 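Also: spheroids exposed to agents for 7 days before viability read.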
smiles,measurement,setting,value
O=C(c1ccc(F)c(F)c1Nc1ccc(I)cc1F)N1CC(O)([C@@H]2CCCCN2)C1 + CCN1C(C(=O)NC23CCC(C(=O)O)(CC2)CC3)C(c2cccc(Cl)c2F)C2(C(=O)Nc3cc(Cl)ccc32)C12CCCCC2,IC50,"curve of first compound, second compound 0.03 µM",209 nM
same,IC50,"curve of first compound, second compound 0.0949 µM",208 nM
same,IC50,"curve of first compound, second compound 0.3 µM",181 nM
same,IC50,"curve of first compound, second compound 0.949 µM",188 nM
same,IC50,"curve of first compound, second compound 3 µM",92.1 nM
same,"viability, T/C","second compound 0.03 µM, first compound 0.00316 µM",118%
same,"viability, T/C","second compound 0.03 µM, first compound 0.01 µM",99.4%
same,"viability, T/C","second compound 0.03 µM, first compound 0.0316 µM",97.7%
same,"viability, T/C","second compound 0.03 µM, first compound 0.1 µM",72.9%
same,"viability, T/C","second compound 0.03 µM, first compound 0.316 µM",35.9%
same,"viability, T/C","second compound 0.03 µM, first compound 1 µM",10.6%
same,"viability, T/C","second compound 0.0949 µM, first compound 0.00316 µM",108%
same,"viability, T/C","second compound 0.0949 µM, first compound 0.01 µM",114%
same,"viability, T/C","second compound 0.0949 µM, first compound 0.0316 µM",95.8%
same,"viability, T/C","second compound 0.0949 µM, first compound 0.1 µM",85.9%
same,"viability, T/C","second compound 0.0949 µM, first compound 0.316 µM",29.6%
same,"viability, T/C","second compound 0.0949 µM, first compound 1 µM",10.4%
same,"viability, T/C","second compound 0.3 µM, first compound 0.00316 µM",106%
same,"viability, T/C","second compound 0.3 µM, first compound 0.01 µM",104%
same,"viability, T/C","second compound 0.3 µM, first compound 0.0316 µM",127%
same,"viability, T/C","second compound 0.3 µM, first compound 0.1 µM",73.5%
same,"viability, T/C","second compound 0.3 µM, first compound 0.316 µM",29.8%
same,"viability, T/C","second compound 0.3 µM, first compound 1 µM",9.99%
same,"viability, T/C","second compound 0.949 µM, first compound 0.00316 µM",99.1%
same,"viability, T/C","second compound 0.949 µM, first compound 0.01 µM",119%
same,"viability, T/C","second compound 0.949 µM, first compound 0.0316 µM",100%
same,"viability, T/C","second compound 0.949 µM, first compound 0.1 µM",78.1%
same,"viability, T/C","second compound 0.949 µM, first compound 0.316 µM",26.8%
same,"viability, T/C","second compound 0.949 µM, first compound 1 µM",12.4%
same,"viability, T/C","second compound 3 µM, first compound 0.00316 µM",99.9%
same,"viability, T/C","second compound 3 µM, first compound 0.01 µM",97.3%
same,"viability, T/C","second compound 3 µM, first compound 0.0316 µM",86.3%
same,"viability, T/C","second compound 3 µM, first compound 0.1 µM",47.3%
same,"viability, T/C","second compound 3 µM, first compound 0.316 µM",17.2%
same,"viability, T/C","second compound 3 µM, first compound 1 µM",11.4%
CCN1CCN(Cc2ccc(Nc3ncc(F)c(-c4cc(F)c5nc(C)n(C(C)C)c5c4)n3)nc2)CC1,"viability, T/C",compound 0.00316 µM,105% and 78% and 90.7%
same,"viability, T/C",compound 0.01 µM,84.4% and 87.4% and 107%
same,"viability, T/C",compound 0.0316 µM,88.9% and 97.7% and 107%
same,"viability, T/C",compound 0.1 µM,85.2% and 84.8% and 106%
same,"viability, T/C",compound 0.316 µM,76.2% and 64.5% and 69.5%
same,"viability, T/C",compound 1 µM,76.5% and 76.4% and 66.7%
same,IC50,curve of compound,> 1000 nM
CNC(C)C(=O)NC1CN(S(=O)(=O)c2cccc(S(=O)(=O)N3CCC4CCC(C(=O)NC(c5ccccc5)c5ccccc5)N4C(=O)C(NC(=O)C(C)NC)C3)c2)CCC2CCC(C(=O)NC(c3ccccc3)c3ccccc3)N2C1=O (stereo not drawn),"viability, T/C",compound 0.00316 µM,96.2% and 82.3% and 87.2%
same,"viability, T/C",compound 0.0316 µM,89.3% [middle of 14 runs]
same,"viability, T/C",compound 0.316 µM,74.3% [middle of 14 runs]
same,IC50,"compound alone, run of 10/24/2022",> 1000 nM
same,IC50,"compound alone, run of 11/15/2022",> 1000 nM
same,IC50,curve of compound,> 1000 nM
